Experimental data from patent publication US20120034613A1, “Apparatus and Method for Testing Relationships Between Gene Expression and Physical Appearance of Skin” (NSE Products, Inc., priority 2010, published 2012).

Tested on: stratum corneum
Experiment: Corneometry, moisture content of the stratum corneum, 12 week clinical study
Type: in vivo, human
Settings: Left Ocular Bone; for Corneometer Mean: Baseline mean 56.49
Text: Corneometry measurements were taken on each subject's left ocular bone (in line with pupil) to measure the moisture content of the stratum corneum. All clinical and corneometer measurements and evaluations were taken at baseline, week 1 (visit 2), week 4 (visit 3), week 8 (visit 4) and week 12 (visit 5). Ultrasound and cutometer measurements and evaluations were taken at baseline, week 4 (visit 3), week 8 (visit 4) and week 12 (visit 5). Completed patient's diaries were reviewed for compliance at each visit. Mean clinical grading and instrumentation scores at each visit were statistically compared to baseline scores using paired t-test. Changes from baseline were considered significant at the p≦0.05 level. Mean percent change from baseline and incidence of positive responders were calculated for all attributes. Comparisons, based on the average from baseline, were made between the test materials using analysis of variance (ANOVA).

Question: Which results are given for `OCc1ccccc1O[C@@H]1O[C@H](CO)[C@@H](O)[C@H](O)[C@H]1O` [Salicin, 2-(Hydroxymethyl)phenyl β-D-glucospyranoside]?
Answer: Corneometer Mean (Week 1): 60.54; Corneometer % Change (Week 1 vs Baseline): (7.3%); Corneometer Mean (Week 4): 62.49; Corneometer % Change (Week 4 vs Baseline): (10.6%); Corneometer Mean (Week 8): 63.91; Corneometer % Change (Week 8 vs Baseline): (13.1%); Corneometer Mean (Week 12): 52.23; Corneometer % Change (Week 12 vs Baseline): (−7.5%)
